US20050186569A1, “Nucleic acid-associated proteins” (priority 2001, published 2005)

Legend:
[1] = system: SEQ ID NO:108 expression in HMVECdNeo cells; experiment: Microarray RNA expression of HMVECdNeo cells treated with TNF-α versus untreated cells; assay type: cell-based, human; settings: TNF-α 10 ng/ml for 2, 4, 8, and 24 hours, result at the last three time points, versus untreated (0 hour)
Method: (§1) Total RNA is isolated from tissue samples using the guanidinium thiocyanate method and poly(A)^+ RNA is purified using the oligo-(dT) cellulose method. Each poly(A)^+ RNA sample is reverse transcribed using MMLV reverse-transcriptase, 0.05 pg/μl oligo-(dT) primer (21mer), 1× first strand buffer, 0.03 units/μl RNase inhibitor, 500 μM dATP, 500 μM dGTP, 500 μM dTTP, 40 μM dCTP, 40 μM dCTP-Cy3 (BDS) or dCTP-Cy5 (Amersham Biosciences). The reverse transcription reaction is performed in a […] containing 200 ng poly(A)^+ RNA with GEMBRIGHT kits (Incyte Genomics). Specific control poly(A)^+ RNAs are synthesized by in vitro transcription from non-coding yeast genomic DNA. […]
(§2) Sequences of the present invention are used to generate array elements. […] Array elements are amplified in thirty cycles of PCR from an initial quantity of 1-2 ng to a final quantity greater than 5 μg. […]
(§3) Reporter-labeled hybridization complexes are detected with a microscope equipped with an Innova 70 mixed gas 10 W laser (Coherent, Inc., Santa Clara Calif.) capable of generating spectral lines at 488 nm for excitation of Cy3 and at 632 nm for excitation of Cy5. […]
(§4) A grid is superimposed over the fluorescence signal image such that the signal from each spot is centered in each element of the grid. […]

[2] = system: SEQ ID NO:100 expression in HMVECdNeos; experiment: Microarray expression analysis of HMVECdNeos treated with TNF-α versus untreated cells; assay type: cell-based, human; settings: HMVECdNeos at 85% confluence treated 1, 2, 4, 8, and 24 hours with TNF-α, versus untreated (0 hour)
Method: as §1, §2, §3, §4

## TNF-α
[1]
  expression of SEQ ID NO:108 (underexpressed): at least two-fold
[2]
  expression of SEQ ID NO:100: decreased expression
